# Results as given in patent US20230100235A1, “ANTICANCER AGENT COMPOSITION” (CARNA BIOSCIENCES, INC., priority 2020, published 2023).
# Test system: BTK-C481S-mutant OCI-Ly10 cells
# Assay: Combined effect by BLISS score, BTK-C481S-mutant OCI-Ly10
# Format: cell-based, Human
# Settings: combination with venetoclax, positive = synergistic
# Description: After 96 hours of culture, an Alamar Blue reagent was added, and 3 hours later, fluorescence of excitation wavelength 560 nm/fluorescence wavelength 590 nm was measured. Cell proliferation inhibition rate and viability (100−inhibition rate %) were determined by setting a compound-free and cell-free well as 100% and a compound-free and cell-containing well as 0%.
# BTK-C481S-mutant OCI-Ly10 cells were produced by point mutation knock-in using the CRISPR-Cas9 system. Cas9 protein (Thermo Fisher Scientific Inc.), guide RNA prepared with GeneArt™ Precision gRNA Synthesis Kit (Thermo Fisher Scientific Inc.), and a single-stranded synthetic oligonucleotide to replace 481st cysteine residue of BTK with a serine residue were introduced into OCI-Ly10 cells by an electroporation method. The resulting modified OCI-Ly10 cells were cultured in the presence of ibrutinib, and the grown cells were used as BTK-C481S-mutant OCI-Ly10 cells. Transduction of the mutation was confirmed by genomic DNA and mRNA sequence analysis.
# The BLISS score was calculated in the same manner as in Example 1.
smiles,measurement,value
"Nc1nc(-c2cccc(-n3ccc4cc(C5CC5)cc(F)c4c3=O)c2CO)c2cc(C3=CCN(C4COC4)CC3)[nH]c2n1 [Compound (I-A), 2-(3-{2-amino-6-[1-(oxetan-3-yl)-1,2,3,6-tetrahydropyridin-4-yl]-7H-pyrrolo[2,3-d]pyrimidin-4-yl}-2-(hydroxymethyl)phenyl)-6-cyclopropyl-8-fluoroisoquinolin-1(2H)-one]",BLISS score,positive values
